Measured values as given in patent US10981926B2 (Janssen Pharmaceutica NV, priority 2016, dated 2021).
pEC50, pIC50: −log10 of the molar value. Where two headings read alike, the source gives them in different places.

Legend:
[1] = target: T1, wild-type Androgen Receptor (AR-wt) (Homo sapiens (Human), UniProt P10275); assay: LNCaP-AR-wt ANT reporter assay (antagonist mode); type: cell-based
[2] = target: T1, wild-type Androgen Receptor (AR-wt); assay: LNCaP-AR-wt AG reporter assay (agonist mode); type: cell-based
[3] = system: VCaP cells; assay: Prostate Cancer Cell Viability Assay-VCaP; type: cell-based; settings: Homo sapiens, 120 h, 5 days, CellTiter-Glo
Method: VCaP cells were counted and seeded into black 384-well plates with clear bottoms at a concentration of 125,000 cells per mL in phenol red-free DMEM containing 10% Charcoal Stripped Serum. 16 μL of the suspension was added per well and incubated for 48 h to allow the cells to adhere. After 48 hours, a 12 point serial semilog dilution of each compound was added to the cells in 16 μL at a final concentration of 100 μM to 0.0003 μM. The compounds of Formula (I) were also run in antagonist mode using 30 pM R1881 in which 8 μL of the compound was added to the cells followed by 8 μL of R1881. After 5 days of incubation at 37° C., 16 μL Of CellTiter-Glo (Promega) was added to the cells and the relative luminescence units (RLUs) of each well determined using the Envision. The percent stimulation and % inhibition were determined for each sample and plotted using GraphPad Prism.

[4] = system: LNCaP F876L; assay: LNCaP Proliferation Assay (LNCaP F876L); type: cell-based; settings: Homo sapiens, 96 h, 4 days, CellTiter-Glo, normalized to 0.1 nM R1881 stimulation
Method: LNCaP cells were expanded in RPMI 10% FBS in T150 flasks. The cells were dislodged with 0.25% Trypsin, washed in complete media, centrifuged (300 g, 3 min), and the supernatant aspirated. The cells were resuspended in RPMI phenol-red free media with 1% charcoal-stripped serum (CSS) and counted using a ViCELL (Beckman-Coulter). 7500 cells were added to each well of a white optical bottom 384-well plate and incubated for 2 days at 37° C. 5% CO2. Compound dilutions were prepared in RPMI CSS using 50 mM stock solutions and added to the cells either alone (agonist mode) or in combination with 0.1 nM R1881 (antagonist mode). The plates were incubated for 4 days, followed by addition of CellTiter-Glo Luminescent Cell Viability kit reagent (Promega). The plates were placed on a shaker at 3000 rpm for 10 minutes and then read on an EnVision plate reader (Perkin Elmer) using Luminescence assay default settings. The data was analyzed, normalized to 0.1 nM R1881 stimulation, and plotted in GraphPad Prism.

[5] = target: AR L701H (Homo sapiens, UniProt P10275, L702H); assay: Luciferase Transcriptional Reporter Assay, AR L701H (HepG2); type: cell-based
Method: (§1) HepG2 cells were maintained in EMEM supplemented with 10% FBS. One day before transfection, the media was changed to EMEM with 10% CSS. T-150 flasks were transiently transfected using 120 μL Lipofectamine 2000 (Life Technologies), 30 μg mutant cDNA (expression vector)—mutant cDNA tested were L701H, T877A, W741C and H874Y—and 40 μg 4×ARE-Luciferase (reporter vector) in OptiMEM and the flasks were incubated overnight. Cells were then trypsinized, counted and resuspended at 500,000 cells/mL. For agonist mode, the compounds of Formula (I) were serially diluted and 50 μL of the compound was added per well. 50 μL of the cells were added to each well and incubated for 48 hours. For antagonist mode, a final concentration of 90 pM R1881 was added to the diluted compounds and incubated for 48 hours. The plates were then assayed using SteadyGlo and read on the Envision. Percent Stimulation and Inhibition were determined and analyzed using GraphPad Prism.
(§2) F876L agonism was evident at 3 and 10 μM (5%) but zero at 30 μM. The antagonistic (IC50) and agonistic (EC50) values for each of the AR cDNA used in the reporter assays are summarized. All values are calculated relative to the activity of R1881 induced androgen receptor activity (n≥3). Also indicated are the maximal inhibition and extent of induction of androgen dependent signaling (%).

[6] = target: AR T877A (Homo sapiens (Human), UniProt P10275, T878A); assay: Luciferase Transcriptional Reporter Assay, AR T877A (HepG2); type: cell-based
Method: as §1, §2

[7] = system: androgen dependent signaling (androgen sensitive organs); assay: Hershberger Assay; type: in vivo, rat
Method: The effect of AR antagonists on androgen dependent signaling in vivo was assessed using the Hershberger assay. In this assay, peripubertal castrated male Sprague-Dawley rats were administered AR antagonists described herein in the presence of testosterone (0.4 mg/kg testosterone propionate) and the weights of androgen dependent organs measured. Dosing was continued for 10 days and measurements taken 24 h after the last dose. The extent of antagonism of AR and consequent inhibition of organ growth was evaluated by comparison to the castration control. Compounds of Formula (I) were dosed orally QD and an endpoint assessment made by change in weight of 5 androgen sensitive organs (ASO): Paired Cowper's Glands (CG), Seminal Vesicles with Fluids and Coagulating Glands (SVCG), Glans Penis (GP), Ventral Prostate (VP) and Levator Ani-Bulbocavernosus Complex (LABC)). According to assay guidelines, statistically significant suppression of ASO is required in 2 of 5 organs for a compound to be classified as an anti-androgen (analysis was performed by t-test/Mann-Whitney).
Unless otherwise stated, compounds defined herein were administered at 30 mg/kg and flutamide (FT), positive control, at 3 mg/kg. All compounds were co-administered with testosterone propionate (TP, 0.4 mg/kg) which was also administered alone, untreated control, (castrated only rats served as the control for complete androgen blockade). A statistically significant change in ASO achieved in at least 2 of 5 organs was indicative of an active compound.

[8] = 30 mg/kg orally QD, 10 days, with TP 0.4 mg/kg, castrated rats, mean ± SD (n=6)

T1 sequence (P10275 whole entry): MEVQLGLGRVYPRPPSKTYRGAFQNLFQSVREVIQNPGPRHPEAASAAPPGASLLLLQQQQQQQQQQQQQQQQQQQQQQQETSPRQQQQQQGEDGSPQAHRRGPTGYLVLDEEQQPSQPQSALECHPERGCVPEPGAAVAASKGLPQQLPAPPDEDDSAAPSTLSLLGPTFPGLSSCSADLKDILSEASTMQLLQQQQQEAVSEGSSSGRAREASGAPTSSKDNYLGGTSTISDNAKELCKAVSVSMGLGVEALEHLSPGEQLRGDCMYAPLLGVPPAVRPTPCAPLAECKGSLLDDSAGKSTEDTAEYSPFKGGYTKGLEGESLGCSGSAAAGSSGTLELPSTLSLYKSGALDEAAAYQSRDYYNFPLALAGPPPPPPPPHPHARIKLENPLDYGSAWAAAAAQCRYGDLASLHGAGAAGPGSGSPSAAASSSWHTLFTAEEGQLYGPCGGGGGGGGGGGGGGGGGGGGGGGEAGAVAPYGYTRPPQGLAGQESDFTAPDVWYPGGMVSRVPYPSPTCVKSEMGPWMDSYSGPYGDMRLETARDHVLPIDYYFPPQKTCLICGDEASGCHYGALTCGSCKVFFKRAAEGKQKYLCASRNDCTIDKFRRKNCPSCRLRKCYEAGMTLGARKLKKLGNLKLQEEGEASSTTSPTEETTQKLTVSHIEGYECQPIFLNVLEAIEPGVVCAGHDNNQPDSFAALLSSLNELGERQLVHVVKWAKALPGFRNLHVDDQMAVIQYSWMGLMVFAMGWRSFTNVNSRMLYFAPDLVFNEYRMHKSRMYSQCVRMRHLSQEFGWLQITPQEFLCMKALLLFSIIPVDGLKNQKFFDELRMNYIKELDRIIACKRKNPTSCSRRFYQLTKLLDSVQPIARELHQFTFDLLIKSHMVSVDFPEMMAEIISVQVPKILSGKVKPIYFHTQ
Sequence of AR L701H (P10275 whole entry L702H): as the sequence (P10275 whole entry) above, with L702H counted along it
Sequence of AR T877A (P10275 whole entry T878A): as the sequence (P10275 whole entry) above, with T878A counted along it

LNCaP-AR-wt ANT pIC50 ([1]; antagonist mode, pIC50 = −Log10(IC50 in Molar)): 7.27 | LNCaP-AR-wt ANT MAX % Inh ([1]; maximum % inhibition of R1881 control response over the tested concentration range): 101.1% | EC50 ([2]; agonist mode, pEC50 = −Log10(EC50 in Molar), read-out: LNCaP-AR-wt AG pEC50 (converted)): > 15100 nM | LNCaP-AR-wt AG MAX % Stim ([2]; maximum % stimulation (agonist response) over the tested concentration range): −0.1% | pIC50 [3]: 6.57 | Emax ([5]; HepG2, agonist mode, relative to R1881, read-out: Agonism % Emax, AR construct L701H): 0% | pIC50 ([5]; HepG2, antagonist mode, 90 pM R1881, 48 hours, read-out: Antagonism IC50, AR construct L701H): 5.00 | Emax ([5]; HepG2, antagonist mode, maximal inhibition, read-out: Antagonism % Emax, AR construct L701H): 90% | pEC50 ([6]; HepG2, agonist mode, 48 hours, read-out: Agonism EC50, AR construct T877A): 5.64 | Emax ([6]; HepG2, agonist mode, relative to R1881, read-out: Agonism % Emax, AR construct T877A): 10% | pIC50 ([6]; HepG2, antagonist mode, 90 pM R1881, 48 hours, read-out: Antagonism IC50, AR construct T877A): 5.17 | Emax ([6]; HepG2, antagonist mode, maximal inhibition, read-out: Antagonism % Emax, AR construct T877A): 80%
Structure (SMILES): N#Cc1ncc(N2C(=O)C3(CCC3)N(c3ccc(OC4CCNCC4)nc3)C2=S)cc1C(F)(F)F [Cpd 43, 5-[5-oxo-8-[6-(4-piperidyloxy)-3-pyridyl]-7-thioxo-6,8-diazaspiro[3.4]octan-6-yl]-3-(trifluoromethyl)pyridine-2-carbonitrile]
pIC50 [4]: 6.71 | ASO Organ Growth (% of TP control) SVCG [7, 8]: 26.0 ± 17.8 % of TP control | ASO Organ Growth (% of TP control) VP [7, 8]: 24.1 ± 48.1 % of TP control | Reduction in ASO versus TP control ([7]; all 5 organs, p≤0.05, 30 mg/kg): significant reduction
